ChEMBL document CHEMBL4837270, “2-Trifluoromethylthiazole-5-carboxamides: Analogues of a Stilbene-Based Anti-HIV Agent that Impact HIV mRNA Processing” (ACS Med Chem Lett, 2021)
Active and inactive are the calls of the source. The rule behind the calls is not given here.

Tests used:
[1] = tested on: Human immunodeficiency virus 1; test: Antiviral activity against HIV1 NL4-3 infected in human CEM-GXR cells assessed as inhibition of viral replication at 1.25 to 10 uM measured after 3 days by Flowcytometry assay; assay type: functional, organism-based; conditions: dose 1.25-10 µM, time 3.0 day
[2] = tested on: Human immunodeficiency virus 1; test: Anti-HIV activity against HIV1 provirus infected in HeLa cells assessed as reduction of GAG production in presence of Doxycycline measured after 24 hrs by GFP flourescence based plate reader method; assay type: functional, organism-based
[3] = Cytotoxicity against human CEM-GXR cells infected with HIV1 NL4-3 assessed as cell viability measured after 3 days by Flowcytometry assay; assay type: cell-based; conditions: 72 h
[4] = Cytotoxicity against human CEM-GXR cells infected with HIV1 NL4-3 assessed as cell viability at 10 uM measured after 72 hrs by Flowcytometry assay; assay type: cell-based
[5] = Cytotoxicity against human CEM-GXR cells infected with wild type HIV1 11845 harboring […] G140S/Q148H mutant assessed as cell viability measured after 72 hrs by Flow cytometry assay; assay type: cell-based
[6] = Cytotoxicity against human CEM-GXR cells infected with wild type HIV1 443 harboring reverse transcriptase K103N/D67N/K70R/Y115F/Q151M/M184V/K219Q mutant assessed as cell viability measured after 72 hrs by Flow cytometry assay; assay type: cell-based
[7] = tested on: Human immunodeficiency virus 1; test: Antiviral activity against antiretroviral-resistant HIV1 2948 harboring protease G48V/L90M mutant infected in human CEM-GXR cells assessed as inhibition of viral replication measured after 3 days by Flowcytometry assay; assay type: functional, organism-based; conditions: Human immunodeficiency virus 1, 2948, CEM-GXR, 72 h
[8] = Cytotoxicity against human CEM-GXR cells infected with wild type HIV1 NL4-3 assessed as cell viability measured after 72 hrs by Flow cytometry assay; assay type: cell-based
[9] = Cytotoxicity against human CEM-GXR cells infected with wild type HIV1 2948 harboring protease G48V/L90M mutant assessed as cell viability measured after 72 hrs by Flow cytometry assay; assay type: cell-based
[10] = Cytotoxicity against human CEM-GXR cells infected with wild type HIV1 97USSN54 assessed as cell viability measured after 72 hrs by Flow cytometry assay; assay type: cell-based
[11] = Therapeutic index, ratio of CC50 for human CEM-GXR cells infected with wild type HIV1 NL4-3 to EC50 for wild type HIV1 NL4-3 infected in human CEM-GXR cells; assay type: toxicity, cell-based; conditions: read-out: TI
[12] = tested on: Human immunodeficiency virus 1; test: Antiviral activity against antiretroviral-resistant HIV1 MVC-res harboring envelope V3 loop A19T/L20F/T22A/E25D/I26V mutant infected in human CEM-GXR cells assessed as inhibition of viral replication measured after 3 days by Flowcytometry assay; assay type: functional, organism-based
[13] = Cytotoxicity against human CEM-GXR cells infected with wild type HIV1 MVC-res harboring envelope V3 loop A19T/L20F/T22A/E25D/I26V mutant assessed as cell viability measured after 72 hrs by Flow cytometry assay; assay type: cell-based
[14] = tested on: Human immunodeficiency virus 1; test: Antiviral activity against wild type HIV1 NL4-3 infected in human CEM-GXR cells assessed as inhibition of viral replication measured after 3 days by Flowcytometry assay; assay type: functional, organism-based; conditions: Human immunodeficiency virus 1, NL4-3, CEM-GXR, 72 h
[15] = Therapeutic index, ratio of CC50 for human CEM-GXR cells infected with wild type HIV1 97USSN54 to EC50 for wild type HIV1 97USSN54 infected in human CEM-GXR cells; assay type: toxicity, cell-based; conditions: read-out: TI
[16] = tested on: Human immunodeficiency virus 1; test: Antiviral activity against wild type HIV1 97USSN54 infected in human CEM-GXR cells assessed as inhibition of viral replication measured after 3 days by Flowcytometry assay; assay type: functional, organism-based; conditions: Human immunodeficiency virus 1, 97USSN54, CEM-GXR, 72 h
[17] = Therapeutic index, ratio of CC50 for human CEM-GXR cells infected HIV1 2948 with harboring protease G48V/L90M mutant to EC50 for HIV1 2948 harboring protease G48V/L90M mutant infected in human CEM-GXR cells; assay type: toxicity, cell-based; conditions: read-out: TI
[18] = tested on: Human immunodeficiency virus 1; test: Antiviral activity against HIV1 NL4-3 infected in human CEM-GXR cells assessed as inhibition of viral replication measured after 3 days by Flowcytometry assay; assay type: functional, organism-based; conditions: Human immunodeficiency virus 1, NL4-3, CEM-GXR, 72 h
[19] = Anti-HIV activity against HIV1 3B infected in human PBMC assessed as inhibition of viral infection measured after 11 days by ELISA method; assay type: functional, cell-based; conditions: Human immunodeficiency virus 1, 3B, 264 h
[20] = Therapeutic index, ratio of CC50 for human CEM-GXR cells infected with HIV1 11845 harboring integrase G140S/Q148H mutant to EC50 for HIV1 11845 harboring integrase G140S/Q148H mutant infected in human CEM-GXR cells; assay type: toxicity, cell-based; conditions: read-out: TI
[21] = Therapeutic index, ratio of CC50 for human CEM-GXR cells infected with HIV1 443 harboring reverse transcriptase K103N/D67N/K70R/Y115F/Q151M/M184V/K219Q mutant to EC50 for HIV1 443 harboring reverse transcriptase K103N/D67N/K70R/Y115F/Q151M/M184V/K219Q mutant; assay type: toxicity; conditions: read-out: TI
[22] = Cytotoxicity against human PBMC cells assessed as cell viability measured after 11 days by Viacount assay; assay type: cell-based; conditions: time 11 day
[23] = tested on: Human immunodeficiency virus 1; test: Anti-HIV activity against HIV1 Bal infected in human PBMC assessed as inhibition of viral infection measured after 11 days by ELISA method; assay type: functional, organism-based; conditions: Human immunodeficiency virus 1, Bal, 264 h
[24] = tested on: Human immunodeficiency virus 1; test: Antiviral activity against antiretroviral-resistant HIV1 11845 harboring integrase G140S/Q148H mutant infected in human CEM-GXR cells assessed as inhibition of viral replication measured after 3 days by Flowcytometry assay; assay type: functional, organism-based; conditions: Human immunodeficiency virus 1, 11845, CEM-GXR, 72 h
[25] = tested on: Human immunodeficiency virus 1; test: Antiviral activity against antiretroviral-resistant HIV1 443 harboring reverse transcriptase K103N/D67N/K70R/Y115F/Q151M/M184V/K219Q mutant infected in human CEM-GXR cells assessed as inhibition of viral replication measured after 3 days by Flowcytometry assay; assay type: functional, organism-based; conditions: Human immunodeficiency virus 1, 443, CEM-GXR, 72 h
[26] = Therapeutic index, ratio of CC50 for human CEM-GXR cells infected with HIV1 MVC-res harboring envelope V3 loop A19T/L20F/T22A/E25D/I26V mutant to EC50 for HIV1 MVC-res harboring envelope V3 loop A19T/L20F/T22A/E25D/I26V mutant infected in human CEM-GXR cells; assay type: toxicity, cell-based; conditions: read-out: TI
[27] = Cytotoxicity against human CEM-GXR cells infected with HIV1 NL4-3 assessed as cell viability at 1.25 to 10 uM measured after 3 days by Flowcytometry assay; assay type: cell-based; conditions: 72 h, dose 1.25-10 µM, time 3 day
[28] = tested on: Human immunodeficiency virus; test: Antiviral activity against HIV; assay type: functional, organism-based; conditions: Human immunodeficiency virus 1
[29] = tested on: Human immunodeficiency virus 1; test: Antiviral activity against HIV1 infected in HeLa cells assessed as decrease of singly spliced RNA levels at 1.25 uM measured after 24 hrs by RT-qPCR method; assay type: functional, organism-based
[30] = tested on: Human immunodeficiency virus 1; test: Antiviral activity against HIV1 infected in HeLa cells assessed as decrease of singly spliced RNA levels at 5 uM measured after 24 hrs by RT-qPCR method; assay type: functional, organism-based
[31] = tested on: Human immunodeficiency virus 1; test: Antiviral activity against HIV1 infected in HeLa cells assessed as decrease of unspliced RNA levels at 5 uM measured after 24 hrs by RT-qPCR method; assay type: functional, organism-based
[32] = tested on: Human immunodeficiency virus 1; test: Antiviral activity against HIV1 infected in HeLa cells assessed as decrease of multiply spliced RNA levels at 1.25 uM measured after 24 hrs by RT-qPCR method; assay type: functional, organism-based
[33] = tested on: HeLa; test: Cytotoxicity against human HeLa cells infected with HIV1 assessed as cell viability upto 5 uM measured after 24 hrs by plate reader method; assay type: cell-based
[34] = tested on: Human immunodeficiency virus 1; test: Antiviral activity against HIV1 infected in HeLa cells assessed as decrease of unspliced RNA levels at 1.25 uM measured after 24 hrs by RT-qPCR method; assay type: functional, organism-based
[35] = tested on: Human immunodeficiency virus 1; test: Antiviral activity against HIV1 infected in HeLa cells assessed as decrease of multiply spliced RNA levels at 5 uM measured after 24 hrs by RT-qPCR method; assay type: functional, organism-based

## O=C(Nc1nsc2ccc([N+](=O)[O-])cc12)c1ccc([N+](=O)[O-])s1
[1]
  Activity: inactive

## O=C(Nc1ccc(C(F)(F)F)cc1)c1ccc([N+](=O)[O-])s1
[2]
  Activity: inactive

## O=C(Nc1cccc2cccnc12)c1ccc([N+](=O)[O-])s1
[1]
  Activity: inactive

## O=C(Nc1nc2c(Cl)cccc2s1)c1ccc([N+](=O)[O-])s1
[1]
  Activity: Active
[3]
  EC50: 5500 nM

## O=C(Nc1nc2c(Cl)cccc2s1)c1cnc(C(F)(F)F)s1
[4]
  Activity: Non-Toxic
[5]
  CC50 at 72 h: 95700 nM
[6]
  CC50 at 72 h: 95700 nM
[7]
  EC50: 1170 nM
[8]
  CC50 at 72 h: 95700 nM
[9]
  CC50 at 72 h: 95700 nM
[10]
  CC50 at 72 h: 95700 nM
[11]
  selectivity ratio: 74
[12]
  EC50: 970 nM
[13]
  CC50 at 72 h: 95700 nM
[14]
  EC50: 1290 nM
[15]
  selectivity ratio: 100
[16]
  EC50: 960 nM
[17]
  selectivity ratio: 82
[18]
  EC50: 1660 nM
[19]
  EC50: 1930 nM
[20]
  selectivity ratio: 101
[21]
  selectivity ratio: 83
[22]
  CC50 at 264 h: 9080 nM
[23]
  EC50: 240 nM
[24]
  EC50: 960 nM
[25]
  EC50: 1160 nM
[26]
  selectivity ratio: 99

## O=C(Nc1nc2c(Cl)cccc2s1)c1cccs1
[1]
  Activity: inactive

## O=C(Nc1nc2c(Cl)cc(Cl)cc2s1)c1ccc([N+](=O)[O-])s1
[27]
  Activity: Toxic
[1]
  Activity: Active

## O=C(Nc1cnc2ccccc2c1)c1ccc([N+](=O)[O-])s1
[1]
  Activity: inactive

## O=C(Nc1nc2c(Cl)cccc2s1)c1ccc(C(F)(F)F)s1
[18]
  EC50: 5500 nM

## Cc1ccc(C(=O)Nc2nc3c(Cl)cccc3s2)s1
[1]
  Activity: inactive

## O=C(Nc1nc2ccc(OC(F)(F)F)cc2s1)c1ccc([N+](=O)[O-])s1
[27]
  Activity: Toxic
[1]
  Activity: Active

## O=C(Nc1cncc2ccccc12)c1ccc([N+](=O)[O-])s1
[1]
  Activity: inactive

## O=C(Nc1nc2ccc([N+](=O)[O-])cc2s1)c1ccc([N+](=O)[O-])s1
[1]
  Activity: Active
[3]
  EC50: 2400 nM

## O=C(Nc1nc2ccc(Cl)cc2s1)c1ccc([N+](=O)[O-])s1
[27]
  Activity: Toxic
[1]
  Activity: Active

## N#Cc1ccc(C(=O)Nc2nc3c(Cl)cccc3s2)s1
[18]
  EC50: 3000 nM

## O=C(Nc1nc2ccc(C(F)(F)F)cc2s1)c1ccc([N+](=O)[O-])s1
[1]
  Activity: Active
[3]
  EC50: 500 nM

## O=[N+]([O-])c1ccc(/C=C/c2ccc3ccccc3n2)s1
[28]
  EC50: 500 nM

## O=C(Nc1nc2cc(Br)ccc2s1)c1ccc([N+](=O)[O-])s1
[27]
  Activity: Toxic
[1]
  Activity: Active

## O=C(Nc1cccc2ncccc12)c1ccc([N+](=O)[O-])s1
[1]
  Activity: inactive

## Nc1nc(=O)n([C@@H]2CS[C@H](CO)O2)cc1F [EMTRICITABINE]
[8]
  CC50 at 72 h: > 100000 nM
[10]
  CC50 at 72 h: > 100000 nM
[11]
  selectivity ratio: > 2940
[14]
  EC50: 30 nM
[15]
  selectivity ratio: > 3850
[16]
  EC50: 30 nM
[19]
  EC50: 5.5 nM
[22]
  CC50 at 264 h: > 10000 nM
[23]
  EC50: 2.1 nM

## O=C(Nc1nc2ccc(C(F)(F)F)cc2s1)c1cnc(C(F)(F)F)s1
[2]
  Activity: Dose-Dependent Effect
[5]
  CC50 at 72 h: 12000 nM
[6]
  CC50 at 72 h: 12000 nM
[7]
  EC50: 230 nM
[8]
  CC50 at 72 h: 12000 nM
[9]
  CC50 at 72 h: 12000 nM
[29]
  Activity: Active
[30]
  Activity: inactive
[10]
  CC50 at 72 h: 12000 nM
[11]
  selectivity ratio: 49
[12]
  EC50: 220 nM
[13]
  CC50 at 72 h: 12000 nM
[14]
  EC50: 250 nM
[15]
  selectivity ratio: 68
[31]
  Activity: inactive
[32]
  Activity: Active
[16]
  EC50: 180 nM
[17]
  selectivity ratio: 52
[18]
  EC50: 470 nM
[19]
  EC50: 740 nM
[20]
  selectivity ratio: 59
[21]
  selectivity ratio: 51
[22]
  CC50 at 264 h: 2510 nM
[33]
  Activity: Toxic
[23]
  EC50: 250 nM
[24]
  EC50: 200 nM
[25]
  EC50: 240 nM
[34]
  Activity: Active
[35]
  Activity: inactive
[26]
  selectivity ratio: 56
